Experimental findings from ChEMBL document CHEMBL5154828 (J Med Chem, 2022) are described below.

pEC50, pIC50: −log10 of the molar value. Active and inactive are the calls of the source. The calls are words filed in the database; no cut-off is given here. Where only a bound is given, the exact number is not on record here.

Data set [1] in a line: Cmax in Sprague-Dawley rat at 5 mg/kg, po measured up to 24 hrs by LC/MS/MS analysis. It is filed as ADME, organism-based. The arrangement: time < 24 hrs, dose 5 mg/kg, route po. Particulars: in vivo.
A short description of data set [2]: AUC (0 to t) in Sprague-Dawley rat at 5 mg/kg, po measured up to 24 hrs by LC/MS/MS analysis. Particulars: in vivo. It is filed as ADME, organism-based. On the set-up: time < 24 hrs, dose 5 mg/kg, route po.
Data set [3] concerns MCF7. In words: Antiproliferative activity against human MCF7 cells assessed as inhibition of cell growth measured after 6 days by cell titre glo luminescence assay. Particulars: MCF7, 144 h.
The target in data set [4] is T1, Estrogen receptor (Homo sapiens, UniProt P03372).
T1 sequence (P03372 whole entry): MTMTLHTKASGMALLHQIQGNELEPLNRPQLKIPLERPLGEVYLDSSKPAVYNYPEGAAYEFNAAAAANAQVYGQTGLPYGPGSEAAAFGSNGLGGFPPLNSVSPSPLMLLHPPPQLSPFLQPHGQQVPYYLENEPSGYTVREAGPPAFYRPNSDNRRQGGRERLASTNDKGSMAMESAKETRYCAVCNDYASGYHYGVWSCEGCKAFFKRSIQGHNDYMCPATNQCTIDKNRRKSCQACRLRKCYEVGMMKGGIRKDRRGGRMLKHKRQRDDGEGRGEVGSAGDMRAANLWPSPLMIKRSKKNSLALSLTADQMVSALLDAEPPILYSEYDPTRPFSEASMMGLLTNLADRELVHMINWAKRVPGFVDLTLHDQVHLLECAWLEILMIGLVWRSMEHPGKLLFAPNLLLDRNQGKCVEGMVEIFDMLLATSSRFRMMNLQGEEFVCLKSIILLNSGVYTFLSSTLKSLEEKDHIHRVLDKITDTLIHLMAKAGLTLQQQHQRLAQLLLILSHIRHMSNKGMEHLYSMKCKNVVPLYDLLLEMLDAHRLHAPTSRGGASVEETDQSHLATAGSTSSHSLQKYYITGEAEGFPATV
In words: Induction of ERalpha degradation in human MCF7 cells incubated for 24 hrs by Western blot analysis. It is filed as cell-based.

Data set [5] concerns the target T1, Estrogen receptor. In words: Antagonist activity at ERalpha expressed in HEK293/Gal4 cells incubated for 24 hrs in presence of estradiol by luciferase reporter gene assay. It is filed as cell-based.
The target of data set [6] is Voltage-gated inwardly rectifying potassium channel KCNH2 (Homo sapiens, UniProt Q12809). In words: Inhibition of human ERG potassium channel expressed in CHO cells by patch-clamp assay. It is filed as toxicity, cell-based.
Voltage-gated inwardly rectifying potassium channel KCNH2, sequence (Q12809 whole entry): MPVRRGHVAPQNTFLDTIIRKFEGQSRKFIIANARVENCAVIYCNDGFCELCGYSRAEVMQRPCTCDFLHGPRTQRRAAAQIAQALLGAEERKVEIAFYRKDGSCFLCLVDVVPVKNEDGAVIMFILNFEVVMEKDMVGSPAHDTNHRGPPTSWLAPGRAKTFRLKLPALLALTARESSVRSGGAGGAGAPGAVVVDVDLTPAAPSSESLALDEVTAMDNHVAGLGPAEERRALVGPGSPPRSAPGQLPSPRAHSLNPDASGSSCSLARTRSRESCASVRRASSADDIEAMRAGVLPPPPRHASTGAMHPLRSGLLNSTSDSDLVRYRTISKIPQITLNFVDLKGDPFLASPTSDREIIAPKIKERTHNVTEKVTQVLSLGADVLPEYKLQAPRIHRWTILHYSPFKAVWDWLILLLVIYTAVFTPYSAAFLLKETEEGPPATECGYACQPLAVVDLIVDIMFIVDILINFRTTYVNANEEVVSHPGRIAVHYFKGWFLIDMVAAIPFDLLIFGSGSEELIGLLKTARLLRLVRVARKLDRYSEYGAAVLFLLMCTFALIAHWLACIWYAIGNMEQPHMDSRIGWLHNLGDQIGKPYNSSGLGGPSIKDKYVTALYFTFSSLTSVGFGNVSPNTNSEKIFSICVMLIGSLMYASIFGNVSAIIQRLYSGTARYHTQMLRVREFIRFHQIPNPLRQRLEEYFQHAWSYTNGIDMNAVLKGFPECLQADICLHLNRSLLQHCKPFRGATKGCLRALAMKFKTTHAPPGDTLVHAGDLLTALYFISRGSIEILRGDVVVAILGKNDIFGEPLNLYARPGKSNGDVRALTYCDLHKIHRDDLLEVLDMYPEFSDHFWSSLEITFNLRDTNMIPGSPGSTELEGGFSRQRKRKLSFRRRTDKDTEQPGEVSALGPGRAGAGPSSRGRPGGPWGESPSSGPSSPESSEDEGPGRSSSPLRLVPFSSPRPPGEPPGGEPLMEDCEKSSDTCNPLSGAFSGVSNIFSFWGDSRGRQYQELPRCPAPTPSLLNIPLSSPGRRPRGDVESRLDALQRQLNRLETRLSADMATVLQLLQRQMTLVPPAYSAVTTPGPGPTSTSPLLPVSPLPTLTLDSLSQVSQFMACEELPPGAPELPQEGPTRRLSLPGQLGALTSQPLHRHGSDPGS
Data set [7] can be described thus: Cmax in Sprague-Dawley rat at 10 mg/kg, po measured up to 24 hrs by LC/MS/MS analysis. It is filed as ADME, organism-based. The following applies: in vivo. The arrangement: time < 24 hrs, dose 10 mg/kg, route po.
Data set [8] in a line: AUC (0 to t) in Sprague-Dawley rat at 10 mg/kg, po measured up to 24 hrs by LC/MS/MS analysis. It is filed as ADME, organism-based. The arrangement: time < 24 hrs, dose 10 mg/kg, route po. Particulars: in vivo.
Another data set addresses Estrogen receptor beta (Homo sapiens, UniProt Q92731). In words: Antagonist activity at ERbeta expressed in HEK293/Gal4 cells incubated for 24 hrs in presence of di-arylpropionitrile by luciferase reporter gene assay.
For data set [9], the system named is MCF7. In words: Anti-hyperplasia activity in […] Sprague-Dawley rat assessed as appearance of tall columnar phenotype in epithelial cells at 60 mg/kg, po once daily for 3 days by hematoxylin and eosin staining based assay. It is filed as functional, organism-based. Particulars: time 3.0 day.
The target in data set [10] is Estrogen receptor (Homo sapiens, UniProt P03372, Y537S). Briefly: Antagonist activity at ERalpha Y537S mutant degradation in human SK-BR-3 cells incubated for 24 hrs in presence of beta-estradiol by luciferase gene assay. It is filed as cell-based.
Estrogen receptor (Homo sapiens, UniProt P03372, Y537S), sequence (P03372 whole entry Y537S): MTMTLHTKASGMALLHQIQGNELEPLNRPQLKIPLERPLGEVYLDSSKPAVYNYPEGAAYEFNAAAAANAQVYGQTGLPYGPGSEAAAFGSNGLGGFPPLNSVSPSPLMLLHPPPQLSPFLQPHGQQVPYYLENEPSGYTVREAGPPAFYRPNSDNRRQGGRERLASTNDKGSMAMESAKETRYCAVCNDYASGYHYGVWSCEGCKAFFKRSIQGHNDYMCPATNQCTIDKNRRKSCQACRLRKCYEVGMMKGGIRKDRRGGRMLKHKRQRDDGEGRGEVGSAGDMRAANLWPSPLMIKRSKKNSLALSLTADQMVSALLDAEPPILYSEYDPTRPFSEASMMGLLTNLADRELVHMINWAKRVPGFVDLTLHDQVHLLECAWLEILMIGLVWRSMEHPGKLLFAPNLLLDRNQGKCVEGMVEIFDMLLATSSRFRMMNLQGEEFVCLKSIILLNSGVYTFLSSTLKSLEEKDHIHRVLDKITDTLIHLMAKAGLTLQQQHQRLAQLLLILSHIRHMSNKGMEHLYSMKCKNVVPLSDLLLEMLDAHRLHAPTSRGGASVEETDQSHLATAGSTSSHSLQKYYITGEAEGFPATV
Data set [11] has as its target Estrogen receptor (Homo sapiens, UniProt P03372, D538G). In words: Antagonist activity at ERalpha D538G mutant degradation in human SK-BR-3 cells incubated for 24 hrs in presence of beta-estradiol by luciferase gene assay. It is filed as cell-based.

Estrogen receptor (Homo sapiens, UniProt P03372, D538G), sequence (P03372 whole entry D538G): as the sequence (P03372 whole entry Y537S) above, with S537Y, D538G counted along it
Estrogen receptor beta, sequence (Q92731 whole entry, the tested form may be a part): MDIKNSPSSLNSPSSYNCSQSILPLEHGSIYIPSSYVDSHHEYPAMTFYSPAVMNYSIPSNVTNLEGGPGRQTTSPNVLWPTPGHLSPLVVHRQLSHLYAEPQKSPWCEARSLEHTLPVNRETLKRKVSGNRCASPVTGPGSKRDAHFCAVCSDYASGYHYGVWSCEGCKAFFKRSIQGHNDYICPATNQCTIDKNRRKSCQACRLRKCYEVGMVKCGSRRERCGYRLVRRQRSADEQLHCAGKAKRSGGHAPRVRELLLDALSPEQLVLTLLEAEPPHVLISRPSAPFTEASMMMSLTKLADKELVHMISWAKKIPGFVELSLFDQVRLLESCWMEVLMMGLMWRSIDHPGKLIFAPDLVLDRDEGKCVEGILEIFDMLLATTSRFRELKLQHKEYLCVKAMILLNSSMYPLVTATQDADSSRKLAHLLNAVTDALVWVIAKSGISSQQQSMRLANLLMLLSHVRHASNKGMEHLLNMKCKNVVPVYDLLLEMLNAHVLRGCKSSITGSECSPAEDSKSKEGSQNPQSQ

In data set [1], `CC(F)(F)c1cc(-c2sc3cc(O)ccc3c2Oc2ccc(/C=C/C(=O)O)cc2)ccc1F` displayed a Cmax of 283 ng/mL. Besides, the AUC(0-t) at 24 h in [2] was 585 ng·h/mL.

Take `COc1cc(Oc2c(-c3ccc(F)cc3C(C)(C)F)sc3c2ccc2[nH]ncc23)ccc1OC1CN(CCCF)C1`: the figures for the pIC50 (in the data set on MCF7 [3]; at Estrogen receptor [5]; in data set [6]) were 9.30, 9.10 and less than 4.40, respectively. In addition, at Estrogen receptor [4], the pEC50 was 8.85. Moreover, in data set [7], the Cmax was determined as 47 ng/mL. The molecule further had an AUC(0-t) at 24 h in data set [8] of 264 ng·h/mL.

Take `CC(F)(F)c1cc(F)c(F)cc1-c1sc2c(ccc3[nH]ncc32)c1Oc1ccc(OC2CN(CCCF)C2)c(F)c1`: the pIC50 is 8.55 in the data set on MCF7 [3], 8.28 at Estrogen receptor [5] and less than 4.40 in data set [6]. The pEC50 on Estrogen receptor [4] is 8.41. Further, the Cmax in data set [7] amounted to 132 ng/mL. In addition, the AUC(0-t) at 24 h in [8] stood at 1280 ng·h/mL.

`O=C(O)c1ccc2c(c1)CCCC(c1ccc(Cl)cc1Cl)=C2c1ccc(O[C@H]2CCN(CCCF)C2)cc1` [AMCENESTRANT]: the results for the pIC50 in the data set with MCF7 [3] and on Estrogen receptor beta were 8.04 and 8.07, respectively.

In the case of `CC/C(=C(\c1ccc(O)cc1)c1ccc(OCCN(C)C)cc1)c1ccccc1`, in the data set with MCF7 [9], the result was Active.

For the molecule `CC(F)(F)c1cc(Cl)ccc1-c1sc2c(ccc3[nH]ncc32)c1Oc1ccc(NC2CN(CCCF)C2)cc1`, the pEC50 at Estrogen receptor [4] is 8.92. Besides, the Cmax in [7] turned out to be 228 ng/mL. This molecule yielded an area under the curve AUC(0-t) at 24 h in data set [8] of 3090 ng·h/mL. Also, the pIC50 at Estrogen receptor [10] was 7.88; on Estrogen receptor [11], 7.78.
